Where two headings read alike, the source gives them in different places.

Data on eleven compounds can be found in patent US20250195513A1, “DEGRADATION OF IRAK4 BY CONJUGATION OF IRAK4 INHIBITORS WITH E3 LIGASE LIGAND AND METHODS OF USE” (BeiGene, Ltd., priority 2022, published 2025).

The assay has as its target T1, IRAK4 (Homo sapiens, UniProt Q9NWZ3).
T1 construct: endogenous in cells; host or cells: Karpas299
T1 sequence (Q9NWZ3 1-460): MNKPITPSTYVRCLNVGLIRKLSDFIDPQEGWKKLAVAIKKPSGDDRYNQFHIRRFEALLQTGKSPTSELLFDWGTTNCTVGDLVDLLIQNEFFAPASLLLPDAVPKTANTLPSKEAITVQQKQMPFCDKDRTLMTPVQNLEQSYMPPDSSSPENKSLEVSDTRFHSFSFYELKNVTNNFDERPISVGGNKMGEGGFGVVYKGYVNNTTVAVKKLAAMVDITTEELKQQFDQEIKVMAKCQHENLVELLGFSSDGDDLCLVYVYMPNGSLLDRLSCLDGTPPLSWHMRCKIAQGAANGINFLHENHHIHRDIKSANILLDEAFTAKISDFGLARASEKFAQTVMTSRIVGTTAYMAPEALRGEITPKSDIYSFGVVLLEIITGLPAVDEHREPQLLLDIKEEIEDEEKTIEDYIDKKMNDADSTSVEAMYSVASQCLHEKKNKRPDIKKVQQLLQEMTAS
In words: IRAK4 Degradation Assay (Karpas299, HTRF/TR-FRET). It counts as cell-based. How it is done: IRAK4 degradation was measured using a TR-FRET-based method (Degorce, François, et al. Current chemical genomics. 2009, 3: 22). Karpas299 maintained in RPMI 1640 medium (Thermo Scientific) supplemented with 20% fetal bovine serum (FBS, Thermo Scientific), 100 units/mL penicillin and 0.1 mg/mL streptomycin (Thermo Scientific) were seeded into 96-well plates at the density of 0.2 million cells per well and then treated with a series dilution of compounds. After 24 hours or 5 hours treatment, cells were pelleted via centrifugation and 40 μL lysis buffer (Cisbio) was added to each well after removal of the supernatant. Plates were then incubated at room temperature with shaking for 30 minutes. A total of 16 μL of cell lysates from each well of a 96-well plate was transferred to a 384-well white assay plate. IRAK4 level was quantitated using the HTRF kit as described by the manufacturer manual (Cisbio). FRET signals were measured using a PHERAstar FSX reader (BMG Labtech).
After treatment, add HTRF lysis buffer to each well; seal the plate and incubate 1 hour at room temperature on a plate shaker; Once the cells are lysed, 16 μL of cell lysate are transferred to a PE 384-well HTRF detection plate; 4 μL of pre-mixed HTRF antibodies are added to each well; Cover the plate with a plate sealer, spin 1000 rpm for 1 min, Incubate overnight at room temperature; Read on BMG PheraStar with HTRF protocol (337 nm-665 nm-620 nm).
The inhibition (degradation) percentage of the compound was calculated by the following equation: […]
The IC50 (DC50) value of a compound can be obtained by fitting the following equation
Wherein, X and Y are known values, and IC50, Hillslope, Top and Bottom are the parameters obtained by fitting with software. Y is the inhibition percentage (calculated from the equation), X is the concentration of the compound; IC50 is the concentration of the compound when the […] is reached. The smaller the IC50 value is, the stronger the inhibitory ability of the compound is. Vice versa, the higher the IC50 value is, the weaker the ability the inhibitory ability of the compound is; Hillslope represents the slope of the fitted curve, generally around 1 *; Bottom represents the minimum value of the curve obtained by data fitting, which is generally 0%±20%; Top represents the maximum value of the curve obtained by data fitting, which is generally 100%±20%. The experimental data were fitted by calculating and analyzing with Dotmatics data analysis software.

[1] abbreviates: Karpas-299 cells, 24 h treatment, maximum percentage of degradation, read-out: IRAK4 in Karpas-299 (24 h) Dmax (%).
[2] abbreviates: Karpas-299 cells, 24 h treatment, read-out: IRAK4 in Karpas-299 (24 h) DC50.
[3] abbreviates: Degradation (Karpas-299), comparison table, Linker Type A, read-out: Compound (Linker Type A) DC50.
[4] abbreviates: Degradation (Karpas-299), comparison table, Linker Type A, read-out: Compound (Linker Type A) Dmax (%).

With `COc1cc2nn([C@H]3CC[C@H](N4CCN(C(=O)[C@@H]5CCN(c6ccc(N7CCC(=O)NC7=O)cc6)C5)CC4)CC3)cc2cc1NC(=O)c1cccc(C(F)(F)F)n1` [Example 164, N-(2-((1R,4r)-4-(4-((R)-1-(4-(2,4-dioxotetrahydropyrimidin-1(2H)-yl)phenyl)pyrrolidine-3-carbonyl)piperazin-1-yl)cyclohexyl)-6-methoxy-2H-indazol-5-yl)-6-(trifluoromethyl)picolinamide], the DC50 by setting is: (Degradation (Karpas-299), comparison table, Linker Type B, read-out: Compound (Linker Type B) DC50) 2 nM; under setting [2], 2 nM. Besides, the Dmax worked out at 97% (Degradation (Karpas-299), comparison table, Linker Type B, read-out: Compound (Linker Type B) Dmax (%)) and 97% under setting [1].
`COc1cc2nn([C@H]3CC[C@H](CN4CCN(C(=O)[C@@H]5CCN(c6ccc(N7CCC(=O)NC7=O)cc6)C5)CC4)CC3)cc2cc1NC(=O)c1cccc(C(F)(F)F)n1` [Example 36, N-(2-((1R,4r)-4-((4-((R)-1-(4-(2,4-dioxotetrahydropyrimidin-1(2H)-yl)phenyl)pyrrolidine-3-carbonyl)piperazin-1-yl)methyl)cyclohexyl)-6-methoxy-2H-indazol-5-yl)-6-(trifluoromethyl)picolinamide]: the DC50 runs as follows: under setting [3], 15 nM; under setting [2], 15 nM. Further, the Dmax under setting [4] is 89% and the Dmax under setting [1] is 89%.
In the case of `CC(C)(O)c1cc2nn([C@H]3C[C@H](N4CCN(C5CN(c6cc(F)c([C@H]7CCC(=O)NC7=O)c(F)c6)C5)CC4)C3)cc2cc1NC(=O)c1ccc2cc(C#N)cnn12` [Example 331, 3-cyano-N-(2-((1R,3r)-3-(4-(1-(4-((R)-2,6-dioxopiperidin-3-yl)-3,5-difluorophenyl)azetidin-3-yl)piperazin-1-yl)cyclobutyl)-6-(2-hydroxypropan-2-yl)-2H-indazol-5-yl)pyrrolo[1,2-b]pyridazine-7-carboxamide], under setting [1], the Dmax amounted to 92%. Further, the DC50 under setting [2] amounted to 3.7 nM.
Taken in the same sequence, the figures for `COc1cc2nn([C@H]3CC[C@H](N4CCN(CCc5cc(F)c([C@H]6CCC(=O)NC6=O)c(F)c5)CC4)CC3)cc2cc1NC(=O)c1cccc(C(F)(F)F)n1` [Example 120, N-(2-((1R,4r)-4-(4-(4-((R)-2,6-dioxopiperidin-3-yl)-3,5-difluorophenethyl)piperazin-1-yl)cyclohexyl)-6-methoxy-2H-indazol-5-yl)-6-(trifluoromethyl)picolinamide] were 99% and 4.2 nM.
Taken in the same sequence, the figures for `O=C1CC[C@H](c2c(F)cc(N3CC[C@@H](C(=O)N4CCN([C@H]5CC[C@H](n6cc(NC(=O)c7cnn(-c8ccnc(NCC(F)(F)F)c8)n7)c(C(F)F)n6)CC5)CC4)C3)cc2F)C(=O)N1` [Example 52, N-(3-(difluoromethyl)-1-((1R,4r)-4-(4-((R)-1-(4-((R)-2,6-dioxopiperidin-3-yl)-3,5-difluorophenyl)pyrrolidine-3-carbonyl)piperazin-1-yl)cyclohexyl)-1H-pyrazol-4-yl)-2-(2-((2,2,2-trifluoroethyl)amino)pyridin-4-yl)-2H-1,2,3-triazole-4-carboxamide] were 96% and 2 nM.
Taken in the same sequence, the figures for `CC(C)(O)c1cc2nn([C@H]3CC[C@H](N4CCN(C(=O)[C@@H]5CCN(c6cc(F)c([C@H]7CCC(=O)NC7=O)c(F)c6)C5)CC4)CC3)cc2cc1NC(=O)c1cccn(C2CC2)c1=O` [Example 103, 1-cyclopropyl-N-(2-((1R,4r)-4-(4-((R)-1-(4-((R)-2,6-dioxopiperidin-3-yl)-3,5-difluorophenyl)pyrrolidine-3-carbonyl)piperazin-1-yl)cyclohexyl)-6-(2-hydroxypropan-2-yl)-2H-indazol-5-yl)-2-oxo-1,2-dihydropyridine-3-carboxamide] were 90% and 4.4 nM.
As to `CC(C)(O)c1cc2nn([C@H]3CC[C@H](N4CCN(C(=O)C5CN(c6cc(F)c([C@H]7CCC(=O)NC7=O)c(F)c6)C5)CC4)CC3)cc2cc1NC(=O)c1cccn(C2CC2)c1=O` [Example 102, 1-cyclopropyl-N-(2-((1r,4r)-4-(4-(1-(4-((R)-2,6-dioxopiperidin-3-yl)-3,5-difluorophenyl)azetidine-3-carbonyl)piperazin-1-yl)cyclohexyl)-6-(2-hydroxypropan-2-yl)-2H-indazol-5-yl)-2-oxo-1,2-dihydropyridine-3-carboxamide], the Dmax runs as follows: (Karpas-299 cells, 5 h treatment, maximum percentage of degradation, read-out: IRAK4 in Karpas-299 (5 h) Dmax (%)) 61%; under setting [1], 94%. The DC50 by setting is: (Karpas-299 cells, 5 h treatment, read-out: IRAK4 in Karpas-299 (5 h) DC50) 12 nM; under setting [2], 2 nM.
On to `O=C1CC[C@H](c2c(F)cc(N3CC(CN4CCN([C@H]5CC[C@H](n6cc(NC(=O)c7coc(-c8ccnc(NCC9CC9)c8)n7)c(C(F)F)n6)CC5)CC4)C3)cc2F)C(=O)N1` [Example 27, 2-(2-((cyclopropylmethyl)amino)pyridin-4-yl)-N-(3-(difluoromethyl)-1-((1r,4r)-4-(4-((1-(4-((R)-2,6-dioxopiperidin-3-yl)-3,5-difluorophenyl)azetidin-3-yl)methyl)piperazin-1-yl)cyclohexyl)-1H-pyrazol-4-yl)oxazole-4-carboxamide], for which the maximal degradation (Dmax) under setting [1] amounted to 99%. In addition, the 50% degradation concentration (DC50) under setting [2] was 2.8 nM.
As to `O=C1CC[C@H](c2c(F)cc(N3CC(C(=O)N4CCN(C[C@H]5CC[C@H](n6cc(NC(=O)c7coc(-c8ccnc(NCC(F)(F)F)c8)n7)c(C(F)F)n6)CC5)CC4)C3)cc2F)C(=O)N1` [Example 4, N-(3-(difluoromethyl)-1-((1r,4r)-4-((4-(1-(4-((R)-2,6-dioxopiperidin-3-yl)-3,5-difluorophenyl)azetidine-3-carbonyl)piperazin-1-yl)methyl)cyclohexyl)-1H-pyrazol-4-yl)-2-(2-((2,2,2-trifluoroethyl)amino)pyridin-4-yl)oxazole-4-carboxamide], the DC50 runs as follows: under setting [3], 6.2 nM; under setting [2], 6.2 nM. In addition, the greatest degradation seen (Dmax) reads like this: under setting [4], 95%; under setting [1], 95%.
Turning to `CC(C)(O)c1cc2nn([C@H]3CC[C@H](N4CCN(C(=O)C5CCN(c6cc(F)c([C@H]7CCC(=O)NC7=O)c(F)c6)CC5)CC4)CC3)cc2cc1NC(=O)c1cccc(C(F)(F)F)n1` [Example 47, N-(2-((1r,4r)-4-(4-(1-(4-((R)-2,6-dioxopiperidin-3-yl)-3,5-difluorophenyl)piperidine-4-carbonyl)piperazin-1-yl)cyclohexyl)-6-(2-hydroxypropan-2-yl)-2H-indazol-5-yl)-6-(trifluoromethyl)picolinamide], the greatest degradation seen (Dmax) under setting [1] was 98%. Besides, under setting [2], the DC50 was 0.6 nM.
With `O=C1CC[C@H](c2c(F)cc(N3CC(C(=O)N4CCN([C@H]5CC[C@H](n6cc(NC(=O)c7coc(-c8ccnc(NCC9CC9)c8)n7)c(C(F)F)n6)CC5)CC4)C3)cc2F)C(=O)N1` [Example 25, 2-(2-((cyclopropylmethyl)amino)pyridin-4-yl)-N-(3-(difluoromethyl)-1-((1r,4r)-4-(4-(1-(4-((R)-2,6-dioxopiperidin-3-yl)-3,5-difluorophenyl)azetidine-3-carbonyl)piperazin-1-yl)cyclohexyl)-1H-pyrazol-4-yl)oxazole-4-carboxamide], the maximal degradation (Dmax) under setting [1] was found to be 99%. The 50% degradation concentration (DC50) under setting [2] was 2.5 nM.
